Data on nine compounds can be found in patent US20260364184A1, “COMPOUND BASED ON OXOISOINDOLINYL-SUBSTITUTED TETRAHYDROPYRIMIDINE-DIONE AND USE THEREOF” (GLUETACS THERAPEUTICS (SHANGHAI) CO., LTD., priority 2023, published 2026).

One experiment concerns the target T1, IRAK4 (Homo sapiens, UniProt Q9NWZ3).
T1 construct: expression of target proteins in cells; endogenous in cells
T1 sequence (Q9NWZ3 1-460): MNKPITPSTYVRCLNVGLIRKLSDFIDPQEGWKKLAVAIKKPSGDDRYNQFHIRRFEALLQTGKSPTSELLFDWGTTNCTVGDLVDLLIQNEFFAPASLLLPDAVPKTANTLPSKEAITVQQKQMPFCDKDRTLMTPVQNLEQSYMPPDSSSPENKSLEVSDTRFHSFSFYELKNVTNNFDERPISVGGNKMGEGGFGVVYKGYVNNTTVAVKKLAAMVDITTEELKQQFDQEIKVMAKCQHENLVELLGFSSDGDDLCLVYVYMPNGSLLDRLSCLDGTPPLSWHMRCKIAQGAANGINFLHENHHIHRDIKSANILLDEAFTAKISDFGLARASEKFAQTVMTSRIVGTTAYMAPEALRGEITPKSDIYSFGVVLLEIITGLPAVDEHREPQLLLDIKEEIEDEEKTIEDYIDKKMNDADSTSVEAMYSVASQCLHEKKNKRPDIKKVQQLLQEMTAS
The experiment can be described thus: Western blot degradation of IRAK4. The note with it: hPBMC Cell; 24 hours. In kind it is cell-based. A digest of the protocol:
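Cells treated with compound, lysed, and target protein detected by Western blot (SDS-PAGE, nitrocellulose transfer). DC50 taken as the concentration giving band grayscale half that of DMSO control, estimated by concentration-response fitting; remaining protein (%) from target band normalised to internal control band; degradation (%) = 1 − remaining.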

Experiment [1] addresses T2, human Cereblon WT GST-tagged protein (CRBN) (Homo sapiens, UniProt Q96SW2).
T2 construct: purchased CISBIO 64BDCRBNPEH
Put plainly: CRBN binding by HTRF (Cereblon binding kit). The following applies: for inhibition at 0.5 µM: read-out: Inhibition Rate at 0.5 μM (%); for inhibition at 2 µM: read-out: Inhibition Rate at 2 μM (%). In a few lines:
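GST-tagged human Cereblon WT was incubated 3 h at room temperature with compound, thalidomide-Re tracer and Eu anti-GST antibody. Final compound concentrations were 10 to 0.00064 µM (7 points) or 2 and 0.5 µM. Inhibition rate was calculated from HTRF 665/620 nm ratios versus solvent and blank controls.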

T2 sequence (Q96SW2 whole entry): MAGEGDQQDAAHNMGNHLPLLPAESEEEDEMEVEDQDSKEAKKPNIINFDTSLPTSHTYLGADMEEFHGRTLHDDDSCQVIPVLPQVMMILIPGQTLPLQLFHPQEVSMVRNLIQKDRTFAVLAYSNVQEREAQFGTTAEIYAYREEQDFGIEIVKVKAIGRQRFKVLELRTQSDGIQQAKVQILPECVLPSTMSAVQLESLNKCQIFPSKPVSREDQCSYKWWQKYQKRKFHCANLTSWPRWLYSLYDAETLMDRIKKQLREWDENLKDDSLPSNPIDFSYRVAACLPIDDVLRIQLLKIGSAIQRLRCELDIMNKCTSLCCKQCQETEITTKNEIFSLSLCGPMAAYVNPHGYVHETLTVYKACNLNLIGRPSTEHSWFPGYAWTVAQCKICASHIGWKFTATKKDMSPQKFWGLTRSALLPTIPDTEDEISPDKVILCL

Take `O=C1CCN(N2Cc3cc(CN4CCC(n5cc(NC(=O)c6coc(-c7ccnc(NCC8CC8)c7)n6)c(C(F)F)n5)CC4)ccc3C2=O)C(=O)N1` [GT-04951, 2-(2-((cyclopropylmethyl)amino)pyridin-4-yl)-N-(3-(difluoromethyl)-1-(1-((2-(2,4-dioxotetrahydropyrimidin-1(2H)-yl)-1-oxoisoindolin-5-yl)methyl)piperidin-4-yl)-1H-pyrazol-4-yl) oxazole-4-carboxamide]: the “Degradation of substrate protein IRAK4 (substrate protein remaining %)” value (shortened to “Degradation … (substrate protein remaining %)”) on IRAK4 is on record as “A (0%≤substrate protein remaining %≤80%)”. In addition, in experiment [1], the “Inhibition Rate at 0.5 μM (%)” value was “a3 (30% < a3 ≤ 40%)” and the “Inhibition Rate at 2 μM (%)” value was “a6 (60% < a6 ≤ 80%)”.
With `O=C1CCN(N2Cc3cc(CN4CCC(n5cc(NC(=O)c6cnn7ccc(N8C[C@H]9C[C@@H]8CO9)nc67)c(C(F)F)n5)CC4)ccc3C2=O)C(=O)N1` [GT-05028, 5-((1R,4R)-2-oxa-5-azabicyclo[2.2.1]heptan-5-yl)-N-(3-(difluoromethyl)-1-(1-((2-(2,4-dioxotetrahydropyrimidin-1(2H)-yl)-1-oxoisoindolin-5-yl)methyl)piperidin-4-yl)-1H-pyrazol-4-yl)pyrazolo[1,5-a]pyrimidine-3-carboxamide], the “Degradation … (substrate protein remaining %)” value on IRAK4 is on record as “A (0%≤substrate protein remaining %≤80%)”. Besides, in experiment [1], the “Inhibition Rate at 0.5 μM (%)” value is given as “a2 (20% < a2 ≤ 30%)” and the “Inhibition Rate at 2 μM (%)” value is recorded as “a6 (60% < a6 ≤ 80%)”.
As for `N#Cc1ccc(O[C@H]2CC[C@H](NC(=O)c3ccc(N4CCC(CN5C[C@@H]6C[C@H]5CN6c5ccc6c(c5)C(=O)N(N5CCC(=O)NC5=O)C6=O)CC4)nn3)CC2)cc1Cl` [GT-05226, N-((1r,4r)-4-(3-chloro-4-cyanophenoxy)cyclohexyl)-6-(4-(((1S,4S)-5-(2-(2,4-dioxotetrahydropyrimidin-1(2H)-yl)-1,3-dioxoisoindolin-5-yl)-2,5-diazabicyclo[2.2.1]heptan-2-yl)methyl)piperidin-1-yl)pyridazine-3-carboxamide], in experiment [1], the inhibition at 0.5 µM fell in the range of 30 to 40% and the inhibition at 2 µM lay within 30 to 40%.
Turning to `O=C1CCN(N2C(=O)c3ccc(N4C5CC4CN(C[C@H]4CC[C@H](n6cc(NC(=O)c7cnn8ccc(N9C[C@H]%10C[C@@H]9CO%10)nc78)c(C(F)F)n6)CC4)C5)cc3C2=O)C(=O)N1` [GT-05242, 5-((1R,4R)-2-oxa-5-azabicyclo[2.2.1]heptan-5-yl)-N-(3-(difluoromethyl)-1-((1r,4R)-4-((6-(2-(2,4-dioxotetrahydropyrimidin-1(2H)-yl)-1,3-dioxoisoindolin-5-yl)-3,6-diazabicyclo[3.1.1]heptan-3-yl)methyl)cyclohexyl)-1H-pyrazol-4-yl)pyrazolo[1,5-a]pyrimidine-3-carboxamide], the “Degradation … (substrate protein remaining %)” value at IRAK4 is reported as “A (0%≤substrate protein remaining %≤80%)”. Also, in experiment [1], the inhibition at 0.5 µM lay in the range of 30 to 40% and the inhibition at 2 µM was in the range of 53 to 60%.
The matching figures for `O=C1CCN(N2C(=O)c3cccc(N4CCC(CN5CCC(n6cc(NC(=O)c7cnn8ccc(N9C[C@H]%10C[C@@H]9CO%10)nc78)c(C(F)F)n6)CC5)CC4)c3C2=O)C(=O)N1` [GT-05285, 5-((1R,4R)-2-oxa-5-azabicyclo[2.2.1]heptan-5-yl)-N-(3-(difluoromethyl)-1-(1-((1-(2-(2,4-dioxotetrahydropyrimidin-1(2H)-yl)-1,3-dioxoisoindolin-4-yl)piperidin-4-yl)methyl)piperidin-4-yl)-1H-pyrazol-4-yl)pyrazolo[1,5-a]pyrimidine-3-carboxamide]: “A (0%≤substrate protein remaining %≤80%)”, 20 to 30% and 60 to 80%.
The matching figures for `CC(C)(O)c1cc2nc(C3CCN(Cc4ccc5c(c4)CN(N4CCC(=O)NC4=O)C5=O)CC3)oc2cc1NC(=O)c1cccc(C(F)(F)F)n1` [GT-05748, N-(2-(1-((2-(2,4-dioxotetrahydropyrimidin-1(2H)-yl)-1-oxoisoindolin-5-yl)methyl)piperidin-4-yl)-5-(2-hydroxypropan-2-yl)benzo[d]oxazol-6-yl)-6-(trifluoromethyl) picolinamide]: “A (0%≤substrate protein remaining %≤80%)”, 10 to 20% and 60 to 80%.
Taken in the same sequence, the figures for `O=C1CCN(N2Cc3cc(CN4CCC(n5cc(NC(=O)c6cnn7ccc(N8CCOCC8)nc67)c(C(F)F)n5)CC4)ccc3C2=O)C(=O)N1` [GT-05749] were “A (0%≤substrate protein remaining %≤80%)”, 20 to 30% and 53 to 60%.
For `N#Cc1ccc(O[C@H]2CC[C@H](NC(=O)c3ccc(N4CCC(CN5CC6CCC5CN6c5ccc6c(c5)C(=O)N(N5CCC(=O)NC5=O)C6=O)CC4)nn3)CC2)cc1Cl` (stereo partly drawn) [GT-05832, N-((1r,4r)-4-(3-chloro-4-cyanophenoxy)cyclohexyl)-6-(4-((5-(2-(2,4-dioxotetrahydropyrimidin-1(2H)-yl)-1,3-dioxoisoindolin-5-yl)-2,5-diazabicyclo[2.2.2]octan-2-yl)methyl)piperidin-1-yl)pyridazine-3-carboxamide], in experiment [1], the inhibition at 0.5 µM lay in the range of 30 to 40% and the inhibition at 2 µM fell in the range of 40 to 53%.
The matching figures for `CC1(C)[C@H](NC(=O)c2ccc(N3CCC(CN4CC5CCC4CN5c4ccc5c(c4)C(=O)N(N4CCC(=O)NC4=O)C5=O)CC3)nc2)C(C)(C)[C@H]1Oc1ccc(C#N)c(Cl)c1` (stereo partly drawn) [GT-05834, N-((1r,3r)-3-(3-chloro-4-cyanophenoxy)-2,2,4,4-tetramethylcyclobutyl)-6-(4-((5-(2-(2,4-dioxotetrahydropyrimidin-1(2H)-yl)-1,3-dioxoisoindolin-5-yl)-2,5-diazabicyclo[2.2.2]octan-2-yl)methyl)piperidin-1-yl)nicotinamide]: 30 to 40% and 20 to 30%.
